What is called IC50 is the concentration that gives 50% inhibition.

One data set relates to S. gordonii biofilm. The experiment in a line: Biofilm susceptibility assay (crystal violet). The class given is cell-based, Streptococcus gordonii DL1. Particulars: 24 h; for MBIC: S. gordonii biofilm formation, at least 90% inhibition; for MBRC: S. gordonii one-day biofilm, at least 90% reduction. Here is the method:
Streptococcus mutans UA159, Streptococcus gordonii DL1 and Streptococcus sanguinis ATCC10556 were obtained from the State Key Laboratory of Oral Diseases (Sichuan University, Chengdu, China). All strains were routinely cultured in brain heart infusion broth (BHI; Difco, Sparks, MD) under anaerobic conditions (5% CO2) at 37°C. For biofilm formation, bacteria were cultured in BHI broth supplied with 1% sucrose (designated BHIS). The effect of II-6s on S. mutans, S. gordonii, and S. sanguinis biofilm was examined by the microdilution method described previously. S. mutans, S. gordonii, and S. sanguinis (1 × 10^7 CFU/ml) respectively, were cultured in BHIS broth and II-6s (0.98 to 500 μg/ml) in 96-well microtiter plates for 24 h. A parallel study was also performed with BHIS as a negative control. After incubation, the culture supernatant and agent were removed, and each well was gently washed three times with phosphate-buffered saline (PBS), then fixed the adherent biofilm was fixed with methanol for 15 min, and stained with 0.1% (wt/vol) crystal violet (Sigma) for 5 min. The excess crystal violet stain in each well was rinsed away with PBS until the blank control wells were colorless. Finally, 200 μl of 95% ethanol was added to each well to dissolve the crystal violet attached to the biofilm. The plate was shaken at room temperature for 30 min, and the absorbance at 595 nm was recorded. To examine the effects of II-6s on mature biofilm, bacterial suspensions were inoculated into a 96-well microtiter plate containing BHIS and incubated at 37°C for 24 h. After biofilm developed, the supernatant from each well was decanted and planktonic cells were removed by washing with sterile PBS. Fresh BHI broth containing II-6s (0.98 to 500 μg/ml) was added to the one-day biofilm, and the plate was further incubated for 24 h. The control wells contained BHIS broth without II-6s. Similarly, the biofilm was fixed, stained, washed, and quantified as described above. […] The experiment was performed in triplicates and repeated at least three times.

Data set [1] relates to S. mutans. As to the kind of experiment: Time-kill assay. The class given is cell-based, Streptococcus mutans UA159. The note with it: at MBC. The method, then:
(§1) The time- and dose-dependent killing capacities of II-6s were assessed by the method modified from that of Koo et al.. S. mutans was diluted to 1 × 10^7 CFU/ml in BHI broth containing test compounds or not, and incubated in 5% CO2 at 37°C. For the time-kill curve, the final concentration of II-6s and CHX was equivalent to their MBC. At 0, 0.5, 1, 2, 4, 6, 8 and 10 h, samples were serially diluted in PBS and 50 μl aliquots were spread onto BHI agar medium. For the dose-dependent killing curve, S. mutans was treated with different doses of II-6s and CHX for 5 min before diluted and spread. All plates were incubated anaerobically for 48 h followed by enumeration of CFU. The time-kill or dose-dependent killing curves were constructed by plotting the log10(CFU/ml) versus the incubation time or concentration. The experiment was performed in triplicates and repeated at least three times.

Data set [2] concerns S. mutans. The experiment in a line: Dose-dependent killing assay. The note with it: equivalent doses, 5-min exposure. The class given is cell-based, Streptococcus mutans UA159. Here is the method: as §1
Data set [3] in a line: In vitro cytotoxicity assay (CCK-8). The class given is cell-based, human. The note with it: human, 5 min exposure. Here is the method:
(§2) The cytotoxicity of II-6s was evaluated by the Cell Counting Kit-8 (CCK-8; Dojindo, Kumamoto, Japan) assay as described by Park et al.. Human gingival epithelial cells (HGE), human oral keratinocytes (HOK) and macrophages RAW264.7 (RAW264.7) were provided by the State Key Laboratory of Oral Diseases, Sichuan University, China. HGE, HOK and RAW264.7 were grown in Dulbecco’s modified Eagle’s medium (DMEM; GibcoTM, Invitrogen, Carlsbad, CA, USA) supplemented with 10% fetal bovine serum (FBS; Invitrogen) and 1% penicillin–streptomycin solution (Invitrogen) and cultured at 37°C in a humidified atmosphere containing 5% CO2. All cells were inoculated into 96 well plates at a density of 1 × 10^4 cells per well for 24 h and then treated with II-6s (0.98 to 500 μg/ml) for 5 min or 24 h. The positive control was treated with CHX (0.98 to 500 μg/ml) at the same time. After treatment, the wells were washed with sterile PBS and fresh medium was added. 10 μl of CCK-8 solution (10 μl) was added to each well and incubated for 1.5 h. The absorbance of each well was measured at the wavelength of 450 nm against a blank which contained medium only. Cell viability was calculated according to the following formula: percent viability = (A450 of treated group − A450 of blank control)/(A450 of negative control − A450 of blank control) × 100%. The experiment was conducted in triplicates and repeated three times.

The subject of data set [4] is Human gingival epithelial cells (HGE). As to the kind of experiment: In vitro cytotoxicity assay (CCK-8). The class given is cell-based. Particulars: 24 h exposure. The method, then:
as §2

Data set [5] deals with human oral keratinocytes (HOK). The experiment in a line: In vitro cytotoxicity assay (CCK-8). The class given is cell-based. The note with it: 24 h exposure. Here is the method:
as §2

The nature of data set [6]: In vitro cytotoxicity assay (CCK-8). The class given is cell-based. Particulars: mouse, RAW264.7 macrophages; RAW264.7, 5 min exposure. The method, then: as §2
The test system of another data set is macrophages RAW264.7. The experiment in a line: In vitro cytotoxicity assay (CCK-8). It is filed as cell-based. The note with it: RAW264.7, 24 h exposure. Here is the method:
as §2

The test system of data set [7] is methicillin-resistant Staphylococcus aureus (MRSA). Also on record: method as in PMID 30940910. Particulars: cited from earlier work.
In data set [8] the test system is methicillin-susceptible S. aureus. Also on record: method as in PMID 30940910. The note with it: cited from earlier work.
On the set-up of data set [9]: method as in PMID 29355409. Particulars: 0.12% CHX daily for a week, repeated every month; in 18 months; cited from earlier work.

Where only a bound is given, the exact number is not on record here.

With `CC(C)(Cc1ccc2ccccc2c1)NC[C@H](O)CNc1cc(C(F)(F)F)cc(C(F)(F)F)c1` [II-6s, (S)-1-((3,5-bis(trifluoromethyl)phenyl)amino)-3-((2-methyl-1-(naphthalen-2-yl)propan-2-yl)amino)propan-2-ol], the MBIC with S. gordonii biofilm came out at 3.91 µg/mL. The same compound displayed an MBRC in the data set on S. gordonii biofilm of 3.91 µg/mL. Further, the “treatment time after which no visible colonies were observed on the plate” value with S. mutans [1] is recorded as 8 h. In addition, the “reduction of S. mutans” value with S. mutans [1] (within 2 h) is on record as “approximately 3 log10 CFU/ml”. The “bactericidal activity in dose-dependent killing assay” value in the data set with S. mutans [2] is “better bactericidal activities than CHX”. The IC50 at 5 min in [3] (human gingival epithelial cells (HGE)), in data set [3] (human oral keratinocytes (HOK)) and in data set [6] was greater than 125 µg/mL each time. The “IC50 (cytotoxicity), compared with CHX” value (in data set [4]; in data set [5]; in the data set with macrophages RAW264.7) was “higher than that of CHX” throughout. For the same compound, the “antimicrobial activity against MRSA” value in data set [7] is recorded as “decent antimicrobial activity”. In [8], the “antimicrobial activity against methicillin-susceptible S. aureus” value is recorded as “decent antimicrobial activity”.

In the data set on S. gordonii biofilm, `[H]/N=C(\N/C(=N/[H])NCCCCCCNC(=N)NC(=N)Nc1ccc(Cl)cc1)Nc1ccc(Cl)cc1` [CHX, Chlorhexidine digluconate, reference compound] registered an MBIC of 3.91 µg/mL and an MBRC of 15.63 µg/mL. For the same compound, the “patients at high caries risk reduced to moderate or low risk” value in data set [9] was “approximately 70%”.

The values above are taken from paper PMC8018465, “Antimicrobial activities of a small molecule compound II-6s against oral streptococci” (Journal of Oral Microbiology, 2021).
